Patent US20230107277A1, “SUBSTITUTED PYRIDAZINE COMPOUND” (Astellas Pharma Inc., priority 2020, published 2023)
pIC50: −log10 of the molar value. Counter-ions that a name gives are not always drawn.

tested on: IL-1β Production of THP-1; assay: Test on IL-1β production of THP-1 (LPS and ATP stimulation, ELISA); type: cell-based; conditions: Homo sapiens; PMA-differentiated THP-1 cells, LPS 50 ng/mL and ATP 5 mM, 2 hours
Protocol: 50 ng/mL of PMA (phorbol myristate acetate, SIGMA, P1585) was added to THP-1 cells, and the cells were cultured at 37° C. for 2 days. […] LPS (Lipopolysaccharide, SIMGA, L2880) and ATP (Adenosine triphosphate, SIGMA, A2383) were added to final concentrations of 50 ng/mL and 5 mM, respectively, and the cells were cultured at 37° C. for 2 hours. The supernatant was collected, and the concentration of IL-1β was measured by an ELISA method (DuoSet ELISA human IL-1β, R&D Systems, DY201). […] The IC50 value was calculated by sigmoid […] model non-linear regression analysis.

| Compound | pIC50 |
| --- | --- |
| Cc1c(NC[C@@H](C)CO)nnc(-c2ccc(C(F)(F)F)cc2O)c1C (single isomer, unassigned) [Example 76, 2-(6-{[(R2R)-3-hydroxy-2-methylpropyl]amino}-4,5-dimethylpyridazine-3-yl)-5-(trifluoromethyl)phenol] | 7.59 |
| OCCCNc1cc(-c2ccccc2)c(-c2ccc(C(F)(F)F)cc2)nn1 [Example 1, 3-({5-phenyl-6-[4-(trifluoromethyl)phenyl]pyridazin-3-yl}amino)propan-1-ol] | 6.01 |
| OCCCNc1nnc(-c2ccc(C(F)(F)F)cc2)cc1-c1ccccc1 [Example 2] | 5.74 |
| Cc1cc(-c2ccc(C(F)(F)F)cc2O)nnc1NC[C@@H](C)O [Example 8, 2-(6-{[(R2R)-2-hydroxypropyl]amino}-5-methylpyridazin-3-yl)-5-(trifluoromethyl)phenol] | 6.80 |
| Cc1cc(N[C@@H]2CCCC[C@H]2O)nnc1-c1ccc(C(F)(F)F)cc1C(F)(F)F [Example 16] | 6.70 |
| Cc1cc(-c2ccc(C(F)(F)F)cc2C(F)(F)F)nnc1N[C@@H]1CCCC[C@H]1O [Example 17] | 6.96 |
| C[C@@H](O)CNc1nnc(-c2ccc(C(F)(F)F)cc2C(F)(F)F)cc1OCCOCc1ccccc1 [Example 19] | 6.21 |
| COc1ccc(-c2cc(C)c(NC[C@@H](C)O)nn2)c(C(F)(F)F)c1 [Example 21] | 6.80 |
| COc1ccc(-c2cc(C)c(NC[C@@H](C)O)nn2)c(C2CC2)c1 [Example 22] | 6.28 |
| Cc1cc(-c2ccc(Cl)cc2C(F)(F)F)nnc1NC[C@@H](C)O [Example 23] | 6.92 |
| Cc1cc(NC[C@@H](C)O)nnc1-c1ccccc1O [Example 25] | 6.30 |
| CC(C)c1cc(NC[C@@H](C)O)nnc1-c1ccc(C(F)(F)F)cc1O [Example 26] | 7.27 |
| Cc1cc(NC[C@@H](C)O)nnc1-c1ccc(F)cc1O [Example 27] | 6.72 |
| Cc1cc(NC[C@@H](C)O)nnc1-c1cccc(F)c1O [Example 30] | 6.29 |
| COc1cccc(-c2nnc(NC[C@@H](C)O)cc2C)c1O [Example 31] | 6.57 |
| C[C@@H](O)CNc1cc(C2CC2)c(-c2ccc(C(F)(F)F)cc2O)nn1 [Example 32] | 7.96 |
| Cc1cc(NC[C@@H](C)O)nnc1-c1cccc(Cl)c1O [Example 33] | 6.77 |

| Compound | pIC50 |
| --- | --- |
| C[C@@H](O)CNc1nnc(-c2ccc(C(F)(F)F)cc2O)cc1N(C)C [Example 35] | 6.23 |
| Cc1cc(NC[C@@H](C)O)nnc1-c1c(O)cccc1F [Example 36] | 6.21 |
| C[C@@H](O)CNc1nnc(-c2ccc(C(F)(F)F)cc2O)cc1C#N [Example 37] | 7.48 |
| C[C@@H](O)CNc1nnc(-c2ccc(C(F)(F)F)cc2O)c(C2CC2)c1C1CC1 [Example 39] | 6.12 |
| OCCCNc1nnc(-c2ccc(C(F)(F)F)cc2)cc1-c1ccco1 [Example 50] | 5.96 |
| OCCCNc1cc(-c2ccco2)c(-c2ccc(C(F)(F)F)cc2)nn1 [Example 51] | 6.00 |
| Cc1cc(NCCCO)nnc1-c1ccc(C(F)(F)F)cc1 [Example 52] | 6.33 |
| Cc1cc(-c2ccc(C(F)(F)F)cc2)nnc1NCCCO [Example 53] | 5.57 |
| COc1ccc(-c2nnc(NC[C@@H](C)O)cc2C)c(C(F)(F)F)c1 [Example 59] | 6.12 |
| COc1ccc(-c2nnc(NC[C@@H](C)O)cc2C)c(C2CC2)c1 [Example 60] | 5.77 |
| Cc1cc(NC[C@@H](C)O)nnc1-c1cc(F)ccc1O [Example 62] | 5.68 |
| Cc1c(NC[C@@H](C)O)nnc(-c2ccc(Cl)cc2O)c1C [Example 65] | 7.31 |
| Cc1cc(NC[C@@H](C)O)nnc1-c1ccc(Cl)cc1O [Example 66] | 7.33 |
| CCc1c(NC[C@@H](C)O)nnc(-c2ccc(C(F)(F)F)cc2O)c1CC [Example 67] | 6.77 |
| Cc1c(NCC(C)(C)O)nnc(-c2ccc(C(F)(F)F)cc2O)c1C [Example 68, 2-{6-[(2-hydroxy-2-methylpropyl)amino]-4,5-dimethylpyridazine-3-yl}-5-(trifluoromethyl)phenol] | 6.51 |
| COc1ccc(-c2nnc(NC[C@@H](C)O)cc2C)c(O)c1 [Example 69] | 6.60 |

Results, then the compound that gave them:

| pIC50 | Compound |
| --- | --- |
| 6.92 | CCOC(=O)c1cc(-c2ccc(C(F)(F)F)cc2C(F)(F)F)nnc1NC[C@@H](C)O [Example 3, ethyl 6-[2,4-bis(trifluoromethyl)phenyl]-3-{[(2R)-2-hydroxypropyl]amino}pyridazine-4-carboxylate] |
| 6.70 | Cc1cc(NC[C@@H](C)O)nnc1-c1ccc(C(F)(F)F)cc1C(F)(F)F [Example 5, (2R)-1-({6-[2,4-bis(trifluoromethyl)phenyl]-5-methylpyridazin-3-yl}amino)propan-2-ol] |
| 7.05 | Cc1cc(-c2ccc(C(F)(F)F)cc2C(F)(F)F)nnc1NC[C@@H](C)O [Example 6, (2R)-1-({6-[2,4-bis(trifluoromethyl)phenyl]-4-methylpyridazin-3-yl}amino)propan-2-ol] |
| 7.77 | Cc1cc(NC[C@@H](C)O)nnc1-c1ccc(C(F)(F)F)cc1O [Example 7, 2-(6-{[(R2R)-2-hydroxypropyl]amino}-4-methylpyridazin-3-yl)-5-(trifluoromethyl)phenol] |
| 6.70 | CC(O)CNc1ccc(-c2ccc(C(F)(F)F)cc2C(F)(F)F)nn1 (stereo not drawn) [Example 10] |
| 6.82 | CC(=O)NCCCCNc1ccc(-c2ccc(C(F)(F)F)cc2C(F)(F)F)nn1 [Example 11] |
| 6.82 | C[C@@H](O)CNc1ccc(-c2ccc(C(F)(F)F)cc2C(F)(F)F)nn1 [Example 12] |
| 6.92 | C[C@@H](O)CNc1nnc(-c2ccc(C(F)(F)F)cc2C(F)(F)F)cc1-n1cccn1 [Example 13] |
| 6.48 | C[C@@H](O)CNc1nnc(-c2ccc(C(F)(F)F)cc2C(F)(F)F)cc1C(=O)N(C)C [Example 14] |
| 7.01 | Cc1cc(C)n(-c2cc(-c3ccc(C(F)(F)F)cc3C(F)(F)F)nnc2NC[C@@H](C)O)n1 [Example 15] |
| 6.59 | C[C@@H](O)CNc1ccc(-c2ccc(C(F)(F)F)cc2O)nn1 [Example 18] |
| 5.82 | Cc1c(NC[C@H](C)O)nnc(-c2ccc(C(F)(F)F)cc2C(F)(F)F)c1C [Example 20] |
| 6.25 | CC(C)c1cc(-c2ccc(C(F)(F)F)cc2C(F)(F)F)nnc1NC[C@@H](C)O [Example 24] |
| 6.70 | C[C@@H](O)CNc1nnc(-c2ccc(C(F)(F)F)cc2C(F)(F)F)cc1C1CC1 [Example 28] |
| 6.34 | C[C@@H](O)CNc1cc(C2CC2)c(-c2ccc(C(F)(F)F)cc2C(F)(F)F)nn1 [Example 29] |
| 7.68 | CC(=O)O[C@H](C)CNc1cc(C)c(-c2ccc(C(F)(F)F)cc2O)nn1 [Example 34] |
| 6.62 | C[C@@H](O)CNc1nnc(-c2ccc(C(F)(F)F)cc2C(F)(F)F)cc1C(=O)N1CCOCC1 [Example 40, (6-[2,4-bis(trifluoromethyl)phenyl]-3-{[(2R)-2-hydroxypropyl]amino}pyridazin-4-yl)(morpholin-4-yl)methanone] |

| pIC50 | Compound |
| --- | --- |
| 6.70 | C[C@@H](O)CNc1nnc(-c2ccc(C(F)(F)F)cc2C(F)(F)F)cc1C(N)=O [Example 41] |
| 5.82 | C[C@@H](O)CNc1nnc(-c2ccc(C(F)(F)F)cc2C(F)(F)F)cc1C(=O)N1CCN(C)CC1 [Example 42, (6-[2,4-bis(trifluoromethyl)phenyl]-3-{[(2R)-2-hydroxypropyl]amino}pyridazine-4-yl)(4-methylpiperazin-1-yl)methanone] |
| 6.07 | C[C@@H](O)CNc1nnc(-c2ccc(C(F)(F)F)cc2C(F)(F)F)cc1C(=O)N1CCO[C@@H](C)C1 [Example 43] |
| 6.24 | C[C@@H](O)CNc1nnc(-c2ccc(C(F)(F)F)cc2C(F)(F)F)cc1C(=O)N1CCSCC1 [Example 44] |
| 6.28 | CC(=O)N[C@H](C)CNc1ccc(-c2ccc(C(F)(F)F)cc2C(F)(F)F)nn1 [Example 45, N—[(R2R)-1-({6-[2,4-bis(trifluoromethyl)phenyl]pyridazin-3-yl}amino)propan-2-yl]acetoamide] |
| 6.92 | O=C(NCCCCNc1ccc(-c2ccc(C(F)(F)F)cc2C(F)(F)F)nn1)C(F)F [Example 46, N-[4({6-[2,4-bis(trifluoromethyl)phenyl]pyridazin-3-yl}amino)butyl]-2,2-difluoroacetoamide] |
| 6.40 | CC(C)C(=O)NCCCCNc1ccc(-c2ccc(C(F)(F)F)cc2C(F)(F)F)nn1 [Example 47] |
| 6.29 | O=C(NCCCCNc1ccc(-c2ccc(C(F)(F)F)cc2C(F)(F)F)nn1)C1CC1 [Example 48] |
| 6.17 | C[C@@H](O)CNc1nnc(-c2ccc(C(F)(F)F)cc2C(F)(F)F)cc1OC(F)F [Example 49, (2R)-1-({6-[2,4-bis(trifluoromethyl)phenyl]-4-(difluoromethoxy)pyridazin-3-yl}amino)propan-2-ol hydrochloride] |
| 5.46 | OCCCNc1cc(-c2ccccc2)c(-c2ccc(C(F)(F)F)cc2C(F)(F)F)nn1 [Example 54] |
| 5.29 | C[C@@H](O)CNc1cc(-n2ccnc2)c(-c2ccc(C(F)(F)F)cc2C(F)(F)F)nn1 [Example 55] |
| 5.60 | C[C@@H]1COCCN1C(=O)c1cc(-c2ccc(C(F)(F)F)cc2C(F)(F)F)nnc1NC[C@@H](C)O [Example 56] |
| 5.80 | C[C@@H](O)CNc1nnc(-c2ccc(C(F)(F)F)cc2C(F)(F)F)cc1C(=O)N1CCOC[C@@H]1C [Example 57] |
| 6.02 | C[C@@H]1CN(C(=O)c2cc(-c3ccc(C(F)(F)F)cc3C(F)(F)F)nnc2NC[C@@H](C)O)CCO1 [Example 58] |
| 5.82 | CC(C)c1cc(NC[C@@H](C)O)nnc1-c1ccc(C(F)(F)F)cc1C(F)(F)F [Example 61] |
| 7.48 | CCc1cc(NC[C@@H](C)O)nnc1-c1ccc(C(F)(F)F)cc1O [Example 64] |
